Values quoted from earlier work, collected in patent US20040053948A1, “Compounds, compositions and methods” (Cytokinetics, Inc., priority 2002, published 2004).

test system: A549 cells; details: data provided by National Cancer Institute, Developmental Therapeutic Program

| SMILES | GI50 |
| --- | --- |
| O=c1[nH]cc(F)c(=O)[nH]1 [5-fluorouracil] | 1000 nM |
| COc1cccc2c1C(=O)c1c(O)c3c(c(O)c1C2=O)C[C@@](O)(C(=O)CO)C[C@@H]3O[C@H]1C[C@H](N)[C@H](O)[C@H](C)O1 [doxorubicin] | 63 nM |
| NC(=O)NO [hydroxyurea] | 500000 nM |
| CC(=O)O[C@H]1C(=O)[C@@]2(C)[C@H]([C@H](OC(=O)c3ccccc3)[C@]3(O)C[C@H](OC(=O)[C@H](O)[C@@H](NC(=O)c4ccccc4)c4ccccc4)C(C)=C1C3(C)C)[C@]1(OC(C)=O)CO[C@@H]1C[C@@H]2O [paclitaxel] | 4 nM |
